One series has as its target T1, bovine GnRH receptor (Bos taurus, UniProt P32236).
T1 construct: membranes were prepared from bovine pituitary; from tissue; host or cells: bovine pituitary
T1 sequence (P32236 1-328): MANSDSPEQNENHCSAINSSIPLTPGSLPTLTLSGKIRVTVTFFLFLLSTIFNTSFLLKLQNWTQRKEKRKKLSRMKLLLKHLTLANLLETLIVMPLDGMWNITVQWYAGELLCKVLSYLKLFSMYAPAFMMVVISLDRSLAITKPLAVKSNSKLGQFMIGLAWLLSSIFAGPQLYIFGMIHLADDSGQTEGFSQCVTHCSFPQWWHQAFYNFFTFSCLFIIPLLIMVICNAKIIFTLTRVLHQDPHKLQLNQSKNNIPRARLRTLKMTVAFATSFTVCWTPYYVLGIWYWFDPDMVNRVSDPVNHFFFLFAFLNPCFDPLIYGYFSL
Description: Radioligand binding, 125I-GnRH-A, bovine pituitary membranes. In a few lines:
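Bound label captured on 0.1% polyethyleneimine-treated GF/C filters, washed three times with PBS, counted. IC50 derived; identical set-up for every species.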

In series [1] the test system is LH levels in castrated rats. As to the kind of experiment: Castrated male rat model, LH suppression. The series is classed as in vivo. The text has this:
Experimental Protocol: Male Sprague-Dawley (225-250 g) rats were castrated and allowed 10 days postoperative recovery. Ten days post castration animals were instrumented with indwelling femoral venous and arterial catheters to facilitate remote infusions and blood sampling. On the day of the experiment, animals were allowed to acclimate to the procedure room while residing in their home cage. Basal blood samples were drawn from all animals. Following basal sampling, either vehicle (10% DMSO, 10% cremophor/saline), Antide (1.0 μg) or compound 11 (10 mg/kg) was administered intravenously. Blood samples were drawn 10, 60, 90, 120, 180, 240 minutes after injections. Blood was centrifuged, serum collected and stored in −70° freezer until assayed. Serum samples were analyzed using DSL-4600 ACTIVE LH coated-tube immunoradiometric assay kit from Diagnostic Systems Laboratories, Inc.
Surgical removal of the gonads removes circulating testosterone and eliminates the negative feedback of testosterone on the hypothalamus. […] This model seems suitable for evaluating small molecule GnRH antagonists.
Male Sprague-Dawley ([…]) rats were castrated via the scrotal approach under halothane anesthesia. Animals were allowed 14 days post operative recovery prior to study. Thirteen days following castration, animals were anesthetized with halothane and instrumented with indwelling jugular vein cannula. Details of the cannulation procedure have been described previously {Harms and Ojeda, 1974)}. On study day, animals were allowed to acclimate to the procedure room while residing in their home cage. Basal blood samples were drawn from all animals. Immediately following basal sampling, vehicle or test compounds were administered by various routes. The routes of administration employed were intravenous (iv), intramuscular (im), intraperitoneal (ip), subcutaneous (sc) and oral (po). Blood samples were drawn into heparin containing tubes at multiple time points post treatment. Blood was centrifuged immediately, plasma collected and stored in −20° freezer until assayed. Plasma samples were analyzed using DSL-4600 ACTIVE LH coated-tube immunoradiometric assay kit from Diagnostic Systems Laboratories, Inc.
Formulation #1 (denoted with superscript 1): 10% DMSO, 10% Cremophor EL and 80% physiological saline.
Formulation #2 (denoted with superscript 2): 10% Cremophor EL and 90% physiological saline.

The next series concerns the target 5-HT7 (Homo sapiens, UniProt P34969). As to the kind of experiment: Selectivity: 5-HT7.
The target of a further series is 5-HT2a (Homo sapiens, UniProt P28223). Description: Selectivity: 5-HT2a.
The next series deals with T2, ILRA (CXCR-1) (Homo sapiens, UniProt P25024).
T2 sequence (P25024 1-350): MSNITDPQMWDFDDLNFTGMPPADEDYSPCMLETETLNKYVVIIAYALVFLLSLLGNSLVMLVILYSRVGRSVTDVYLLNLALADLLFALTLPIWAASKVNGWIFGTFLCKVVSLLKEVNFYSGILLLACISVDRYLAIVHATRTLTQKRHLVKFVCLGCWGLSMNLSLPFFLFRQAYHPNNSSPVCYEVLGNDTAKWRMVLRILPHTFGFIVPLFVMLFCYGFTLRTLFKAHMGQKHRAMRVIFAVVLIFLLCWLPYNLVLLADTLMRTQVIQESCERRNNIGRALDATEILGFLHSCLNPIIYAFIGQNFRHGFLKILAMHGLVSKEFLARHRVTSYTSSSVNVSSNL
Description: Selectivity: ILRA (CXCR-1) / IL8.

Another series concerns the target GLP-1 (Homo sapiens, UniProt P43220). As to the kind of experiment: Selectivity: GLP-1.
A short description of series [2]: Metabolism rate, pmol/min/mg at 1 μM, human. Type of series: in vitro ADME. As to conditions: 1 μM compound.
Series [3] can be described thus: Metabolism rate, pmol/min/mg at 1 μM, rat female. The series is classed as in vitro ADME. As to conditions: 1 μM compound.
Setting [4] is: means ± SE of at least three experiments performed in duplicate, read-out: Bovine IC50.

“Also recorded” adds a separate entry of the source. Read-outs that look alike come from different tables or passages of the source. Where a SMILES comes first, the peptide text is derived from it. [ ]: non-standard residue; d: D form. The star is where a group is joined. dPhe(4-Cl) = N[C@H](Cc1ccc(Cl)cc1)C(=O)O; d2Nal = N[C@H](Cc1ccc2ccccc2c1)C(=O)O; Lys(iPr) = CC(C)NCCCC[C@H](N)C(=O)O; d3Pal = N[C@H](Cc1cccnc1)C(=O)O; Nicotinoyl = O=C(c1cccnc1)*

As usually defined, the IC50 is the point on the concentration scale where inhibition reaches its midpoint. Usually Ki stands for a measure of affinity in units of concentration, obtained from inhibition or displacement. A low value points to higher affinity.

5-HT2a, sequence (P28223 whole entry, species assumed): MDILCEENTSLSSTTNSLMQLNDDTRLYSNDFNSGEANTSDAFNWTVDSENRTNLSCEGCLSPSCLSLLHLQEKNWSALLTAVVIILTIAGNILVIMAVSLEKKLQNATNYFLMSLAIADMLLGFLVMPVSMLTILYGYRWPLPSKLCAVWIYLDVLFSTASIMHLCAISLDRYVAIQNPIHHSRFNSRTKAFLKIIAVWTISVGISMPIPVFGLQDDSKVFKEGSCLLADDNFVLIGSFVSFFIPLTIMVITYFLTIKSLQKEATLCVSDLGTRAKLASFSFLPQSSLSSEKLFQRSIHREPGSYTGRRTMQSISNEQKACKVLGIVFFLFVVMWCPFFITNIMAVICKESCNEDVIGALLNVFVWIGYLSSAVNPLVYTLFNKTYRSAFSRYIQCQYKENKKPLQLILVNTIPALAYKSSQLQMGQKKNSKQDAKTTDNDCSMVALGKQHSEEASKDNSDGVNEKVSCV
GLP-1, sequence (P43220 24-463): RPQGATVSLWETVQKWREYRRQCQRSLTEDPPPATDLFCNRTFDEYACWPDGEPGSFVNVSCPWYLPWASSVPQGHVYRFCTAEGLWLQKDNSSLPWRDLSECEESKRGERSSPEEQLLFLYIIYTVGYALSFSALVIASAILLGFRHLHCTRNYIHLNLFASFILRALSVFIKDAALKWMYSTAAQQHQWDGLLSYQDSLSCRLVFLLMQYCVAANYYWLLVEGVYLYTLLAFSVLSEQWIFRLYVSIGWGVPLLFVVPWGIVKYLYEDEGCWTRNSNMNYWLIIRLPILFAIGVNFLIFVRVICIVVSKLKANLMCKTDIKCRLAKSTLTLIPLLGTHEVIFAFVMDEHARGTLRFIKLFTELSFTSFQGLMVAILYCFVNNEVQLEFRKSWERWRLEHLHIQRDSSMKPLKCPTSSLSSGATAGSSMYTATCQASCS
5-HT7, sequence (P34969 whole entry, species assumed): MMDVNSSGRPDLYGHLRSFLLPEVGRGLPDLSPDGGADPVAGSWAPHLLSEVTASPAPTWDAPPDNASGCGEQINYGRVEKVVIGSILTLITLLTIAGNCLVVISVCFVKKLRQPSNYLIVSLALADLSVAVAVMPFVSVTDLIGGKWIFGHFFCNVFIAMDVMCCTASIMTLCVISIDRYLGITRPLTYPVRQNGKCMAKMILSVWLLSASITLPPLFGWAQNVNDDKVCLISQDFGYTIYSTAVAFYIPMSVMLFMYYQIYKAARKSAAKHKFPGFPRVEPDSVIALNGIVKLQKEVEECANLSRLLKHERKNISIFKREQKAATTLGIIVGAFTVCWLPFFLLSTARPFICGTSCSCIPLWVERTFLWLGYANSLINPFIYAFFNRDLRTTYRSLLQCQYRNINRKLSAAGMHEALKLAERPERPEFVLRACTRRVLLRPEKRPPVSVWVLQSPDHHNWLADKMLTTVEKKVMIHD

As for `CC(=O)N[C@H](Cc1ccc2ccccc2c1)C(=O)N[C@H](Cc1ccc(Cl)cc1)C(=O)N[C@H](Cc1cccnc1)C(=O)N[C@@H](CO)C(=O)N[C@@H](CCCCNC(=O)c1cccnc1)C(=O)N[C@H](CCCCNC(=O)c1cccnc1)C(=O)N[C@@H](CC(C)C)C(=O)N[C@@H](CCCCNC(C)C)C(=O)N1CCC[C@H]1C(=O)N[C@H](C)C(N)=O` [Antide, reference compound] (Ac-[d2Nal][dPhe(4-Cl)][d3Pal]SK(Nicotinoyl)[dK](Nicotinoyl)L[Lys(iPr)]P[dA]-NH2), the IC50 at bovine GnRH receptor (setting [4]) was determined as 0.15 ± 0.02 nM. In addition, the “LH in CX rats” value in series [1] (Antide 2.0 and 20 ug, sc) was “reduces LH levels; also recorded: suppresses LH”. For the same compound, in series [1] (intravenous, Antide 1.0 μg, compound 11 10 mg/kg), the “LH in castrated rat model” value was “reduces LH”.

Turning to `Cc1cc2c(cc1Cc1ccc(C(=O)NC[C@H]3CC[C@H](CNC(=N)N)CC3)o1)C(C)(C)CCC2(C)C` [Compound 10], the figures for the IC50 on bovine GnRH receptor (setting [4]) and against ILRA (CXCR-1) were 1500 ± 480 nM and 6400 nM, respectively. The inhibition constant Ki was determined as 1270 nM on 5-HT7 and 1200 nM on 5-HT2a.

On to `Cc1cc2c(cc1Cc1ccc(C(=O)NCC3CCCC(CNc4nccc(NCC5CCCO5)n4)C3)o1)C(C)(C)CCC2(C)C` (stereo not shown) [Compound 11], for which the IC50 was 320 ± 10 nM at bovine GnRH receptor (setting [4]), greater than 10000 nM against GLP-1 and greater than 10000 nM against ILRA (CXCR-1). The Ki on 5-HT7 is 1800 nM.

`Cc1cc2c(cc1Cc1ccc(C(=O)NC[C@H]3CC[C@H](C(=O)O)CC3)o1)C(C)(C)CCC2(C)C` [Compound 12]: the IC50 at bovine GnRH receptor (setting [4]) was 10400 ± 3000 nM; against ILRA (CXCR-1), greater than 10000 nM. In addition, the inhibition constant Ki on 5-HT7 is greater than 4500 nM; at 5-HT2a, greater than 4000 nM.

In the case of `Cc1cnc(CNC(=O)c2ccc(Cc3cc4c(cc3C)C(C)(C)CCC4(C)C)o2)cn1` [Compound 13], the IC50 is 530 ± 100 nM at bovine GnRH receptor (setting [4]), greater than 10000 nM at GLP-1 and greater than 10000 nM at ILRA (CXCR-1). The Ki at 5-HT7 is greater than 4400 nM.

Take `COc1cccc(OC)c1NC(=O)c1ccc(Cc2cc3c(cc2C)C(C)(C)CCC3(C)C)o1` [Compound 20]: the results for the IC50 at bovine GnRH receptor (read-out: bGnRH IC50), against GLP-1 and on ILRA (CXCR-1) were 130 nM, greater than 10000 nM and greater than 10000 nM, respectively. The Ki on 5-HT7 was greater than 4400 nM; at GLP-1, greater than 10000 nM; at 5-HT2a, 2350 nM; on ILRA (CXCR-1), greater than 10000 nM.

With `Cc1cc2c(cc1Cc1ccc(C(=O)NCc3nc4ccccc4[nH]3)o1)C(C)(C)CCC2(C)C` [Compound 48], the values for the half-maximal inhibitory concentration (IC50) on bovine GnRH receptor (read-out: bGnRH IC50), against GLP-1 and at ILRA (CXCR-1) were 490 nM, greater than 10000 nM and greater than 10000 nM, respectively. For the same compound, the figures for the “% Max LH Suppression” value in series [1] (10 mg/kg iv) and in series [1] (20 mg/kg iv) were 75% and 51%, respectively. Also, the “time of % Max LH Suppression” value in series [1] (10 mg/kg iv) was determined as 0.5 h; in series [1] (20 mg/kg iv) it was 1 h. For the same compound, the “≧50% Suppression Duration” value in series [1] (10 mg/kg iv) is less than 1 h; in series [1] (20 mg/kg iv) it was 1 h. Further, the “Human pmol/min/mg 1 μM” value in series [2] amounted to 289 pmol/min/mg. Further, in series [3], the “Rat female pmol/min/mg 1 μM” value stood at 135 pmol/min/mg. This compound came in with a Ki on 5-HT7 greater than 4400 nM.

On to `Cc1cc2c(cc1Cc1ccc(C(=O)NCc3cccc(CNc4nccc(NCC5CCCO5)n4)c3)o1)C(C)(C)CCC2(C)C` (stereo not shown) [Compound 70], for which the IC50 at bovine GnRH receptor (read-out: bGnRH IC50) amounted to 43 nM. Also, the “Human pmol/min/mg 1 μM” value in series [2] amounted to 311 pmol/min/mg.

On to `COc1cc(OC)c(NC(=O)c2ccc(Cc3cc4c(cc3C)CCCC4(C)C)o2)c(OC)c1` [Compound 183], for which, in series [1] (10 mg/kg im), the “% Max LH Suppression” value is 58% and the “time of % Max LH Suppression” value worked out at 2 h. In series [1] (10 mg/kg iv), the “% Max LH Suppression” value was 92%, the “time of % Max LH Suppression” value was 1 h and the “≧50% Suppression Duration” value worked out at 8 h. Further, in series [1] (50 mg/kg po), the “% Max LH Suppression” value stood at 60%, the “time of % Max LH Suppression” value was found to be 2 h and the “≧50% Suppression Duration” value came to 8 h. Also, the “Human pmol/min/mg 1 μM” value in series [2] turned out to be 238 pmol/min/mg. Further, the “Rat female pmol/min/mg 1 μM” value in series [3] is 64 pmol/min/mg.

`COc1cc(OC)c(NC(=O)c2ccc(Cc3cc(C(C)(C)C)ccc3C)o2)c(OC)c1` [Compound 200]: in series [2], the “Human pmol/min/mg 1 μM” value amounted to 346 pmol/min/mg. In addition, the “Rat female pmol/min/mg 1 μM” value in series [3] was found to be 86 pmol/min/mg.
